Assay results as given in patent US11413322B2, “Immunotherapy for angiogenic disease” (International Institute of Cancer Immunology, Inc., priority 2014, dated 2022).
Entries after “also recorded” stand apart in the source; their conditions may differ. Ends that are not written are not given here.

Assays:
[1] = test system: laser-induced choroid coat angiogenesis; assay: Mouse model of laser-induced choroid coat angiogenesis, WT1 peptide vaccine (Example 1); assay type: in vivo, mouse (C57BL/6J)
Procedure: Male C57BL/6J mice (provided by CLEA Japan, Inc.) were used. At the beginning of the experiment, the mice were 8 weeks old (body weight: about 20 to 25 g). The mice were free-fed with laboratory chow (manufactured by Oriental Yeast Co., Ltd.) and tap water. Six mice were used for each administration group.
The resultant was diluted to 0.227 or 2.27 mg/mL with sterilized PBS. The resultant WT1 solution and Montanide ISA51 VG were mixed so that the volume ratio was 1:1.27 to prepare emulsions of 0.1 μg/μL, 1 μg/μL, and 10 μg/μL. Each of the emulsions was intracutaneously administered at 10 μL/body. Administered doses were 1 μg/body, 10 μg/body, and 100 μg/body. Timing of administrations were on 15, 22, 29, and 36 days after photocoagulation.
Specifically, with respect to the mice of administration groups (groups 1 to 4) administered with the test substance (WT1 peptide), the administration was carried out through the following procedure.
(1) Grouping was carried out on the basis of area of fluorescence leakage on 14 days after the photocoagulation.
(3) Abdomen was shaved with hair clippers, and then intracutaneous administration was carried out using a 30 G injection needle.
(3) Photocoagulation was carried out using Multi Color Laser Photocoagulator (red) (manufactured by NIDEK CO., LTD.) under the following coagulation conditions: spot size of 50 μm, output of 60 mW, and coagulation time of 0.1 second. […]
(2) Dilatation of pupils was carried out with Mydrin-P, and then general anesthesia was performed by intramuscular administration at 1 mL/kg of a mixture of Ketalar injection (manufactured by DAIICHI SANKYO COMPANY, LIMITED) and Celactal injection (manufactured by Bayer) (7:1). (3) Fluorescite (Manufactured by Alcon, Inc.) was injected at 0.1 mL/kg via the tail vein, and then fluorescence ocular fundus angiography was carried out using Micron III. (4) An area of fluorescence leakage was calculated using an image analysis software. […]

[2] = test system: choroidal neovascular area; assay: Mouse laser-induced choroidal neovascularization, WT1235m and WT1332 (Example 2); assay type: in vivo, mouse (CBF-1); conditions: 200 μg/body intracutaneous, 4 administrations, FIG. 5; for choroidal neovascular area compared to PBS administration group: time course 2 to 6 weeks
Procedure: Two species of WT1 peptides: WT1235m ([…](SEQ ID NO: 19)) and WT1332 ([…](SEQ ID NO: 32)) were used as test substances, and following setting of administration groups were provided to conduct an experiment in the same method and procedure as Example 1. The WT1235m was a peptide in which methionine in position 2 of WT1235 (SEQ ID NO: 9) was replaced with tyrosine.
Fluorescence ocular fundus angiography was carried out at 2 weeks, 3 weeks, 4 weeks, 5 weeks, and 6 weeks after the photocoagulation to analyze time-dependent change of choroidal neovascular area. […] In WT1332 administration group, choroidal neovascular area at 6 weeks after the photocoagulation was reduced to about 70% of choroidal neovascular area at 2 weeks after the photocoagulation.

Sequence | choroidal neovascular area at 6 weeks after the photocoagulation relative to area at 2 weeks after the photocoagulation ([1]; WT135 group, dose not specified (1, 10, 100 μg/body applied), intracutaneous, FIG. 4) | choroidal neovascular area, change with administration (vs PBS administration group) ([1]; any applied dose of 1, 10 and 100 μg/body intracutaneous, time course 2 to 6 weeks, FIG. 3, FIG. 4) | choroidal neovascular area at 6 weeks after the photocoagulation compared with 2 weeks (in words) ([2]; CBF-1 mice) | choroidal neovascular area compared to PBS administration group [2] | choroidal neovascular area at 6 weeks after the photocoagulation relative to area at 2 weeks after the photocoagulation ([2]; CBF-1 mice)
APVLDFAPPGASAYGSLG [WT135, WT1 peptide] | about 50% | Decrease in choroidal neovascular area; also recorded: decreasing trend |  |  | 
CYTWNQMNL [WT1235m] |  |  | the same as that at 2 weeks after the photocoagulation | Decrease in choroidal neovascular area | 
KRYFKLSHLQMHSRKH [WT1332, WT1 peptide] |  |  |  | Decrease in choroidal neovascular area | about 70%
